Biological target: T1, GBA2 (Homo sapiens, UniProt Q9HCG7)
T1 sequence (Q9HCG7 1-927): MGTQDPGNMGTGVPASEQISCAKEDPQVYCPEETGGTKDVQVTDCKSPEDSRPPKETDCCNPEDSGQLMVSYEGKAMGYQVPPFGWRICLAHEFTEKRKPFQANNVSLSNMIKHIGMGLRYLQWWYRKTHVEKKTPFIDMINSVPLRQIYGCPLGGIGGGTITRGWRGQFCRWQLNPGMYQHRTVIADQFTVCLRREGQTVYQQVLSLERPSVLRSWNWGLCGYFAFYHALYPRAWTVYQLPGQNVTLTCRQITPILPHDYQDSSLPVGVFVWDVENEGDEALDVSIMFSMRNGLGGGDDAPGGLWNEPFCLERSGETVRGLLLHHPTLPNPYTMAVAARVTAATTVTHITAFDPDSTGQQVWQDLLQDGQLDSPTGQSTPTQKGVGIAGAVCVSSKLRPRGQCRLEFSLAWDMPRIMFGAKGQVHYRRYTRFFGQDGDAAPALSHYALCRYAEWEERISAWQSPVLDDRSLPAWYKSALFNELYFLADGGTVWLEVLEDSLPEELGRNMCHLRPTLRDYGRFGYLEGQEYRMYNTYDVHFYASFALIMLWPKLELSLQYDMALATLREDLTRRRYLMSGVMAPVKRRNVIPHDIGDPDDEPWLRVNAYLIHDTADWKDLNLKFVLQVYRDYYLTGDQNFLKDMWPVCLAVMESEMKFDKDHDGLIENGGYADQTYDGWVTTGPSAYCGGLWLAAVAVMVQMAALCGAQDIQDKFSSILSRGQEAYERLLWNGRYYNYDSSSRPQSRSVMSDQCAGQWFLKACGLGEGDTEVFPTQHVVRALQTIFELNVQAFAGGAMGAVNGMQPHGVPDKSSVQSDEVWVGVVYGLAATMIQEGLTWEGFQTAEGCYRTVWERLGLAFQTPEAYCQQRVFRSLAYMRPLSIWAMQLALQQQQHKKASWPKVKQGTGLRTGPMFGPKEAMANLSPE
Experiment: In situ labelling/inactivation in intact HEK293T cells (endogenous GBA1, GBA2/GBA3 OE)
Type: cell-based
Set-up: expressed in transfected cells; host or cells: HEK293T GBA1/GBA2 KO (CRISPR/Cas9), GBA2 overexpressed
Conditions: ESI Fig. S8B (24 h incubation)
Method: We next sought to investigate whether we could identify and localize active GBA2 molecules in human cells using our β-D-Araf aziridine ABPs. […] The lysates were then denatured, their protein content separated by SDS-PAGE and the resulting wet gel slabs scanned for fluorescence. Following this procedure, we observed that all three β-D-Araf ABPs 3–5 enter intact cells, where they react with GBA2, and given the enzyme lifetime (>24 h), also with newly synthesized GBA2 (Fig. 5A, ESI Fig. S8A and B ^†).
Figure S7. Fluorescent gel images of in situ labelling of intact HEK293T cells (GBA1 endogenous and GBA2/GBA3 OE) by arabinofuranosyl cyclitol configured ABPs 3-5, 14 and 20 after 1 h incubation. GAA = Lysosomal α glucosidase (EC 3.2.1.20, CAZy GH31).
Figure S8. […] Intact HEK293T cells were treated with β-D-Araf ABPs for 24 h at 37 °C with 7% CO2, then cells were collected and lysed for labelling studies with or without residual β-glucosidases activity read out. […]
2.8 β-Glucosidase inactivation visualized by competitive ABPP with SDS-PAGE In general, samples containing GBA1, GBA2 or GBA3 (see the exact constitution of these samples in the described case) are first incubated (in vitro or in situ) with the inactivator compounds, subsequently, the fluorescent readout ABPs were added and incubated with the mixture to reveal the residual active β-glucosidase enzymes. […]

CC1=CC(C)=[N+]2C1=C(CCCCc1cn(CCCCCCCCN3[C@@H]4[C@H](CO)[C@@H](O)[C@H](O)[C@@H]43)nn1)c1c(C)cc(C)n1[B-]2(F)F (some centres unmarked) [ABP 3]
Concentration at which GBA2 is inactivated almost completely in intact cells: 100 nM

COc1ccc(C2=[N+]3C(=C(CCCCc4cn(CCCCCCCCN5[C@@H]6[C@H](CO)[C@@H](O)[C@H](O)[C@@H]65)nn4)c4ccc(-c5ccc(OC)cc5)n4[B-]3(F)F)C=C2)cc1 (some centres unmarked) [ABP 4]
Concentration at which GBA2 is inactivated almost completely in intact cells: 100 nM
